Laboratory results published in EP4631504A1, “COMPOSITION FOR PREVENTION OR TREATMENT OF FABRY'S DISEASE” (Korea Advanced Institute of Science and Technology, priority 2022, dated 2024).
Entries after “also recorded” stand apart in the source; their conditions may differ.

Key:
[1] = system: FD-VECs; assay: Tube-like structure formation assay of FD-VECs; assay type: cell-based, human
Experimental: FD-iPSC lines that were generated from fibroblasts of three FD patients with a GLA variant were used. A wild-type (WT) iPSC line derived from foreskin fibroblasts and a FD1 isogenic iPSC line were used as controls. Human iPSCs (hiPSCs) were maintained in mTeSR1 medium ([…] Technologies, Vancouver, Canada) on culture plates precoated with Corning Matrigel® hESC-Qualified Matrix. The cells were maintained at 37°C in a 5% CO2 incubator. After 7 days of culture, hiPSC colonies were split at a 1:50 ratio using accutase solution (eBioscience, San Diego, CA, USA) and incubated under the same culture conditions for expansion.
Human iPSCs were differentiated into VECs as described previously, with further optimization. Briefly, hiPSCs were transferred to dishes coated with Matrigel® (BD Biosciences, Franklin Lakes, NJ, USA) and cultured for 2 days in mTESR1 medium ([…] Technologies) at 37°C and 5% CO2. Subsequently, the cells were cultured for a further 2 days in VEC medium (RPMI (HyClone, Logan, MI, USA), 1% B27 (Invitrogen, Carlsbad, CA, USA), and penicillin/streptomycin (Invitrogen)) supplemented with 50 ng/mL Activin A (PeproTech, Rocky Hill, NJ, USA) and 20 ng/mL BMP4 (PeproTech), and 3 µM CHIR990921 (Sigma, St. Louis, MO) at 37°C and 5% CO2. Next, the cells were cultured for 3 days in VEC medium containing 50 ng/mL VEGF-A (PeproTech) and 50 ng/mL bFGF, at 37°C and 5% CO2. To differentiate the vascular progenitors into VECs, CD31^+ cells were sorted from the differentiated cells by MACS using CD31^+ Dynabeads (Thermo Fisher Scientific, Waltham, MA, USA). The CD31^+ cells were transferred to gelatin-coated plates and incubated for 3 days in EGM-2 medium (Lonza, Basel, Switzerland) supplemented with 100 ng/mL VEGF-A and 50 ng/mL bFGF, at 37°C and 5% CO2. The culture medium was changed daily. Finally, the vascular progenitors were cultured in EGM-2 medium without growth factors for 4 days with daily medium change.
To screen for clinical compounds that could rescue FD-VEC dysfunction, VECs were seeded onto gelatin-coated 96-well plates (SPL Life Sciences, Pocheon, Korea) at a density of 3 × 10^3 cells/cm^2 and maintained in EGM-2 medium without growth factors for 24 hours. […] Subsequently, it was examined whether FD-VECs treated with each selected compound could form tube-like structures on Matrigel®-coated plates. The tube-like structure forming assay was repeated at least three times using different concentrations of each selected compound (0.5, 1, and 5 µM).
FD-VECs were dissociated after treatment with Accutase (eBioscience) at 37°C for 5 min. Dissociated cells (1 × 10^4) were transferred to Matrigel® matrix (BD Biosciences) in EGM-2 medium supplemented with 100 ng/mL VEGF-A, and then incubated at 37°C and 5% CO2 for 24 hours. Images of the vascular tube-like structures were taken using an inverted microscope (Olympus, Tokyo, Japan). Total tube lengths were measured using ImageJ software, which was freely provided by the […], and its Angiogenesis Analyzer plugin (Carpentier, 2012).

[2] = system: p-SMAD2, SMAD2, TSP1, KDR, eNOS; assay: Western blot analysis of p-SMAD2, TSP1, KDR and eNOS in FD-VECs; assay type: cell-based, human; conditions: compared to non-treated FD-VECs
[3] = system: EndMT of FD-VECs; assay: EndMT-associated factors in FD-VECs (Western blot, immunostaining); assay type: cell-based, human
Excerpt: Hyperactive SMAD2 signaling induces EndMT in VECs, thereby reducing angiogenic functionality. […] Before drug treatment, the present inventors performed bulk RNA sequencing of FD-VECs and FD(c)-VECs to examine the mechanism underlying the defective vasculopathy of FD-VECs.

[4] = system: FD-VECs; assay: ROS fluorescence intensity in FD-VECs; assay type: cell-based, human
[5] = system: FD-VECs; assay: Extracellular flux analysis of oxygen consumption rate (OCR); assay type: cell-based, human
[6] = system: FD mice (Gla^-/-/TSP1^Tg); assay: Echocardiography of FD mice after oral administration; assay type: in vivo; conditions: 10 or 30 mg/kg/day for 6 months
Excerpt: Therefore, the present inventors hypothesized that Gla^-/- mice expressing human TSP1 (Gla^-/-/TSP1^Tg; hereinafter referred to as FD mice) might be an effective animal model for studying FD-related vasculopathy. […] LVH is known to occur in up to half of males and one-third of females in FD patients (Kampmann C, Linhart A, Baehner F, Palecek T, Wiethoff CM, Miebach E, Whybra C, Gal A, Bultas J, Beck M (2008) Onset and progression of the Anderson-Fabry disease related cardiomyopathy. International Journal of Cardiology 130: 367-73). Thus, the present inventors investigated the cardiac functionality in each mouse group via echocardiography.
To this end, FD-mice (Gla^-/-/TSP1^Tg) were produced by crossing transgenic mice expressing human TSP1 with Gla^-/- mice. The produced mice were then orally administered lomerizine (10 or 30 mg/kg/day) for 6 months (FIG. 18A).

[7] = system: FD mice (Gla^-/-/TSP1^Tg); assay: Sweat secretion analysis in FD mice; assay type: in vivo; conditions: oral, 10 or 30 mg/kg/day for 6 months
[8] = system: FD mice (Gla^-/-/TSP1^Tg); assay: Heat tolerance test (paw withdrawal latency) in FD mice; assay type: in vivo; conditions: oral, 10 or 30 mg/kg/day for 6 months
[9] = system: FD mice (Gla^-/-/TSP1^Tg); assay: Immunohistochemistry and Western blot of renal tissues of FD mice; assay type: in vivo; conditions: oral administration
[10] = system: Fabry disease mice (Gla^-/-); assay: Echocardiography of Gla^-/- mice after co-administration; assay type: in vivo; conditions: fasudil 30 mg/kg daily oral; enzyme 1 mg/kg i.v. once a week; 6 months
[11] = system: Fabry disease mice (Gla^-/-); assay: Sweat secretion of Gla^-/- mice after co-administration; assay type: in vivo; conditions: fasudil 30 mg/kg daily oral; enzyme 1 mg/kg i.v. once a week; 6 months
[12] = system: Fabry disease mice (Gla^-/-); assay: Hot plate test (55°C) of Gla^-/- mice after co-administration; assay type: in vivo; conditions: hot plate 55°C; fasudil 30 mg/kg daily oral; enzyme 1 mg/kg i.v. once a week; 6 months
Experimental: Many Fabry disease patients suffer from peripheral neuropathic pain, and one way to indirectly assess the pain in laboratory animals is to measure the time it takes for the hind limbs to jump on a hot plate at 55°C.

[13] = system: Fabry disease mice (Gla^-/-); assay: Kidney tissue analysis of Gla^-/- mice after co-administration; assay type: in vivo; conditions: fasudil 30 mg/kg daily oral; enzyme 1 mg/kg i.v. once a week; 6 months

Q: `O=S(=O)(c1cccc2cnccc12)N1CCCNCC1` [fasudil] was tested. Which “tube length of FD-VECs” value ([1]; 5 µM, compared to the untreated group) did it give?
A: significantly increased

Q: And the tube formation ability ([1]; 0.5, 1, and 5 µM, versus DMSO control)?
A: relatively higher tube formation ability; also recorded: most effective

Q: What about the optimal concentration ([1]; based on tube formation of FD-VECs) of the same molecule?
A: 5 µM

Q: What about the “tube formation ability of VECs derived from FD-iPSC lines with distinct GLA mutations” value ([1]; fasudil at 5 µM) of the same molecule?
A: enhanced

Q: And the “levels of KDR and eNOS” value [2]?
A: increased

Q: And the “levels of p-SMAD2 and TSP1” value [2]?
A: reduced

Q: And the “levels of mesenchymal-related markers (COL1A1, ACTA2, SNAI1, and TWIST)” value ([3]; Western blot)?
A: reduced

Q: What about the “protein level of CD31” value ([3]; Western blot) of the same molecule?
A: increased

Q: What about the “fluorescence intensities of EndMT-related factors (ACTA2, SNAI1, COL1A1)” value ([3]; immunostaining) of the same molecule?
A: reduced

Q: What about the “level of ROS” value [4] of the same molecule?
A: reduced the level of ROS to that seen in WT-VECs and FD(c)-VECs

Q: What about the “basal respiration, ATP production, or spare capacity” value [5] of the same molecule?
A: did not alter

Q: And the maximal respiration [5]?
A: partially reduced

Q: What about the “LV mass/BW” value [6] of the same molecule?
A: significantly reduced

Q: And the “cardiac ejection fraction, fractional shortening, and cardiac output” value [6]?
A: enhanced

Q: And the “anhidrosis (number of sweat spots)” value [7]?
A: significantly alleviated

Q: What about the “heat insensitivity (paw withdrawal latency)” value [8] of the same molecule?
A: significantly alleviated

Q: What about the “protein levels of fibrotic and inflammatory markers in renal tissues” value ([9]; Western blot) of the same molecule?
A: confirmed by Western blot analysis

Q: What about the “CD31+ACTA2+ cells in renal tissues” value ([9]; immunohistochemistry) of the same molecule?
A: reduced

Q: What about the “expression levels of F4/80 and LCN2 in renal tissues” value ([9]; immunohistochemistry) of the same molecule?
A: reduced

Q: What about the “expression of COL1A1 in renal tissues” value ([9]; immunohistochemistry) of the same molecule?
A: downregulated

Q: And the cardiac function [10]?
A: improvement in cardiac function

Q: And the left ventricular hypertrophy [10]?
A: significant reduction

Q: And the sweating [11]?
A: reduced

Q: And the “latency (time for hind limbs to jump on hot plate)” value [12]?
A: slight decrease in latency

Q: What about the “expression of fibrosis-related marker (COL1A1) and inflammation markers (LCN2 and F4/80) in kidney tissues” value [13] of the same molecule?
A: reduced
